The METLIN SMRT retention time set (Domingo-Almenara et al. 2019)

experiment: gradient 5% acetonitrile 3 min, to 50% in 2 min, to 85% in 15 min, held 3 min, 100 µL/min; details: column: Zorbax Extend-C18 2.1 x 50 mm; eluents: water / acetonitrile, 0.1% formic acid
In short: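 Retention times come from adduct peaks that were picked computationally and then checked by hand. The standards, pure and pooled in mixtures of ~100 molecules, were run on a Zorbax Extend-C18 column (2.1 × 50 mm, 1.8 μm) at 100 μL/min with water and acetonitrile, each with 0.1% formic acid. Detection was by quadrupole time-of-flight mass spectrometry in positive and negative ionization mode, with a dead volume of 40 μL and a dwell volume of 900 μL.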

Row | SMILES | RP-LC retention time [s]
1 | CCN1C(=O)COc2cc(-c3noc(C(=O)NCC4CCCO4)n3)ccc21 (stereo unspecified) | 783
2 | CCCN(CC1CCOC1)C(=O)c1cc(F)ccc1Cl (stereo unspecified) | 821
3 | Cn1cc2c3c(cccc31)CN(C(=O)c1c(F)cccc1F)CC2 | 920
4 | O=C(Nc1ccc(F)cc1)C1CCN(S(=O)(=O)c2cc(C(=O)N3CCCCCC3)cs2)CC1 | 920
5 | COc1ccc(NC(=O)c2cc3c(=O)oc4ccccc4c3n2C)cc1OC | 850
6 | S=C1SCN(CCc2ccccc2)CN1CCc1ccccc1 | 1210
7 | Fc1cccc(CN2CCc3nc(N4CCOCC4)ncc3C2)c1 | 604
8 | O=C(NCc1cccc(F)c1)C1c2ccccc2CCN1C(=O)C1CC1 (stereo unspecified) | 840
9 | CC1(C)SC2C(NC(=O)[C@H](NC(=O)N3CCNC3=O)c3ccccc3)C(=O)N2C1C(=O)O (stereo partly specified) | 709
10 | COc1ccc(C2CCCN2C(=O)c2nn(C)cc2Cl)cc1 (stereo unspecified) | 770
11 | CNC(=O)N1CC(C)Oc2ccc(C)cc21 (stereo unspecified) | 765
12 | CC(C)(NC(=O)C1CCCO1)c1nc2c(c(C(N)=O)n1)OCO2 (stereo unspecified) | 563
13 | CCOC(=O)c1c(N)ssc1=S | 786
14 | CCc1ccccc1NC(=O)Cn1nc(N2CCOCC2)c2ccccc2c1=O | 744
15 | CCCN(C)c1nccnc1OC1CCN(C(=O)CC(C)C)C1 (stereo unspecified) | 835
16 | CC(C)c1nnc(-c2ccc(S(=O)(=O)N3CCCCC3)o2)o1 | 890
17 | CCN(Cc1ccccc1)C(=O)CN1C(=O)C2CCCCN2c2ccc(C(=O)N3CCCC3)cc21 (stereo unspecified) | 892
18 | O=C(NCc1ccc(F)cc1Cl)C1CCN(c2cncnc2N2CCCC2)CC1 | 665
19 | c1ccc(CCNc2nnc(-c3nc(C4CC4)no3)c3ccccc23)nc1 | 629
20 | CCn1cnc(S(=O)(=O)N2CCC(C(=O)Nc3ccc4c(c3)OCO4)CC2)c1 | 688
21 | CCC1CN(C(=O)N2CCC(C(=O)NCCN3CCN(CC)CC3)CC2)c2ccccc2O1 (stereo unspecified) | 617
22 | Cc1cc(C)c2c(n1)SCCN2C(=O)CCC(=O)NCc1ccccc1C | 700
23 | O=C1NC2(CCN(C(=O)NCc3cccc(F)c3)CC2)Nc2cc(Cl)ccc21 | 770
24 | COc1ccc2c(c1)C=C(C(=O)NCc1ccccc1)C=CO2 | 940
25 | O=C(NC1CC1)C1(F)CCN(S(=O)(=O)c2ccccc2)CC1 | 673
26 | O=C(CCc1c[nH]c2ccccc12)N1CCOc2ccc(N3CCOCC3)cc2C1 | 770
27 | O=C1NCCCCCCN(C(=O)c2cccs2)[C@H]2CCCC[C@@H]12 | 838

Second part, the compound after the results:

Row | RP-LC retention time [s] | SMILES
28 | 754 | Cc1nn(C)c(C)c1S(=O)(=O)N1CC=C(c2cn(C)c3ncccc23)CC1
29 | 1070 | Cc1cc(C)cc(C(=O)Nc2cccn3nc(C4CCC4)nc23)c1
30 | 692 | COc1ccc(-c2cc(N3CCC(NC(=O)c4cccc(C#N)c4)C3)n[nH]2)cc1 (stereo unspecified)
31 | 764 | CCOC(=O)c1cnc2nc(C)ccc2c1Nc1cc(F)ccc1Cl
32 | 629 | Cc1cc(N2CCN(C(=O)COc3ccc(Cl)cc3)CC2)nc2nncn12
33 | 800 | Cc1ccc(Nc2cc(C)nc(N3CCN(C(=O)Nc4cccc(Cl)c4)CC3)n2)cc1
34 | 970 | COc1ccc(-c2csc(C)n2)cc1S(=O)(=O)N1CCc2ccccc2C1
35 | 674 | CCN(CC)S(=O)(=O)c1ccc2nc(N3CCN(C4CCCCC4)CC3)cnc2c1
36 | 839 | Cc1ccc2c(c1)N(Cc1ccc(F)cc1)N=C(C(=O)N1CCOCC1)S2(=O)=O
37 | 837 | O=C(c1cc(F)cc(F)c1)N1CCN(c2cc(-c3ccc(F)cc3)[nH]n2)CC1
38 | 926 | O=C(Nc1ccc2c(c1)N(S(=O)(=O)c1ccccc1)CCC2)c1ccccc1[N+](=O)[O-]
39 | 1160 | Cc1ccc(NC(=O)c2csc(-c3cn(C)c4ncccc34)n2)c(F)c1
40 | 928 | O=C(NCc1nc(-c2ccc3c(c2)Sc2ccccc2C(=O)N3C2CC2)no1)c1cccs1
41 | 872 | Cc1oc(C2CCN(S(=O)(=O)c3ccc(C#N)cc3)CC2)nc1C(=O)N1CCCC1
42 | 1130 | COc1ccc2c(c1)-c1nc(NC(=O)c3ccccc3C)sc1CC2
43 | 1140 | CCN(CC)S(=O)(=O)c1cc(-c2nnc(-c3ccc(OC)cc3)o2)ccc1Cl
44 | 869 | COc1ccc(NC(=O)Cn2nc3cc(C)nc(Nc4cc(C)cc(C)c4)n3c2=O)cc1
45 | 928 | CCOC(=O)c1ccc(NC2=NS(=O)(=O)C(c3ccc(OC)cc3)=C2C)cc1
46 | 795 | CC(C)c1ccc(S(=O)(=O)N2CCN(c3cnn4cnnc4c3)CC2)cc1
47 | 1020 | CCc1ccc(C2=Nc3cccnc3N(CC(=O)Nc3ccc4c(c3)OCCO4)C(=O)C2)cc1

Row | RP-LC retention time [s] | SMILES
48 | 801 | CCOC(=O)c1ccc(NC(=O)N2CCCC2c2c(C)noc2C)cc1 (stereo unspecified)
49 | 969 | Cc1ccc(-c2nc(N)n(S(=O)(=O)c3ccc(C)cc3)n2)cc1
50 | 703 | COc1ccc(N2CC(c3nnc(NC(=O)c4ccccc4Br)o3)CC2=O)cc1 (stereo unspecified)
51 | 892 | O=C(NCc1csc(-c2cccs2)n1)C1CCN(S(=O)(=O)c2ccc(F)cc2)CC1
52 | 794 | Cc1noc(C)c1S(=O)(=O)N1CCC(c2noc(-c3ccccn3)n2)C1 (stereo unspecified)
53 | 563 | CCOC(=O)C1CCN(Cc2cn3c(-c4ccc(OC)cc4)nnc3s2)CC1
54 | 704 | Cc1ccc(CC(=O)N2CCN(c3cc(-c4ccc(C)cc4)ncn3)CC2)cc1
55 | 816 | Cc1ccc(CNC(=O)C2(C)Cn3cnc(C(=O)NCCc4ccccc4)c3C(=O)N2C2CC2)cc1 (stereo unspecified)
56 | 1070 | CCc1ccc(S(=O)(=O)N2C[C@@H]3C(=O)N(C(CC)c4cccs4)C(=O)[C@@H]3C2)cc1 (stereo partly specified)
57 | 580 | CCOC(=O)c1nc(N2CCN(c3ccccn3)CC2)c2ccccc2n1
58 | 996 | CCN(CC)C(=O)c1cc(C)nc2c1c(=O)n(Cc1nc(-c3ccccc3)oc1C)c(=O)n2C
59 | 579 | CN1C(=O)CCc2cc(NC(=O)c3ccncc3)ccc21
60 | 1040 | CC1=NN(c2ccccc2)C(=O)C1C(=O)c1ccccc1Br (stereo unspecified)
61 | 713 | CCCS(=O)(=O)N1CCC(Cc2nncn2-c2ccccc2)CC1
62 | 878 | COc1ccc(-c2nc3cnccn3c2Nc2ccc(C)c(Cl)c2)cc1OC
63 | 783 | CC(C)n1cnc2ccc(-c3noc(COc4ccc(F)cc4)n3)cc21
64 | 927 | CCc1ccc(N2CC(c3noc(-c4cc(OC)c(OC)c(OC)c4)n3)CC2=O)cc1 (stereo unspecified)
65 | 1020 | Cc1csc(-c2csc(S(=O)(=O)Nc3ccc(F)c(Cl)c3)c2)n1
66 | 598 | CS(=O)(=O)Nc1cccc(NC(=O)c2ccc(N3CCCC3)nn2)c1
